Measurements as given in patent EP4810052A2, “HCRHR2 SELECTIVE POLYPEPTIDES” (Gubra A/S, priority 2023, dated 2026).
Starred links: 1 amine or outer side, 2 acyl side, 3 side chain; linkers in the order of their positions; H or OH if unused. Non-standard residues stand in square brackets, D forms with d. Residues, ends and D or L forms follow the SMILES beside them. Groups on a side chain read outwards from the residue. *: point of attachment. C20 diacid = O=C(O)CCCCCCCCCCCCCCCCCCC(=O)*; γGlu = O=C(O)[C@H](CCC(=O)[*:2])N[*:1]; NMeI = CC[C@H](C)[C@H](NC)C(=O)O; Nle = CCCC[C@H](N)C(=O)O; AEEA = NCCOCCOCC(=O)O; Aib = CC(C)(N)C(=O)O

Key:
[1] = Size exclusion chromatography for high molecular weight products (HMWP); format: physicochemical; settings: for HMWP formation (SEC analysis) T14-T0 (%): 14 days; for HMWP formation (SEC analysis) T28-T0 (%): 28 days
Description: Dissolved samples were incubated for at least 2 h at room temperature on a rocking table. The main peak purity at time zero (T0) was determined using reversed phase chromatography. The samples were incubated at 40°C for 14 days (T14) and 28 days (T28). The samples were analyzed with reversed phase chromatography and size exclusion chromatography.
Size exclusion chromatography (SEC) was used as an analysis for the formation of high molecular weight products (HMWP, covalent dimers, trimers etc.,). SEC analyses was performed on Thermo Dionex Ultimate UHPLC system with UV detection at 215 nm) equipped with a SEC column (Waters BEH 125Å, 1.7 µm, 300mm x 4.6). Analysis was performed by isocratic elution using 60% buffer B (0.1% TFA in 5:95 H2O: acetonitrile) in buffer A (0.1% TFA in 95:5 H2O: acetonitrile) at a column temperature of 60° C over 20 min. Flowrate was 0.3 mL/min.
Chromatograms were integrated as HMWP (all peaks eluting before the main peak), main peak (assuming this is monomeric peptide) and if relevant LMWP (low molecular weight products, all peaks eluting after main peak). The amount of HMWP was reported as area relative to total area in percent.

[2] = Body mass and body fat content in mouse model of diet-induced obesity (DIO); format: in vivo; settings: DIO mice; for relative body weight: 28 days, compared to vehicle; for Blood HbA1c / M. Gastrocnemius / M. Soleus / Body weight at termination / Fat mass change from baseline / Lean mass change from baseline / Relative body weight change at termination: Table 17 study; for Body weight at termination / Fat mass change from baseline / Lean mass change from baseline / Relative body weight change at termination: ± SEM
Description: SEQ ID NO: 3, SEQ ID NO: 6, SEQ ID NO: 238, SEQ ID NO: 16 and SEQ ID NO: 215 were assessed for their ability to reduce body mass and body fat content in a mouse model of diet-induced obesity (DIO).
Male C57BL/6JRj mice were obtained from JanVier (JanVier Labs, France) at 5 weeks of age. The animals were group-housed during obesity induction and then single housed 2 weeks prior to study start. They were housed under a 12/12 h dark-light cycle, light off at 3 PM. Room temperature was controlled to 22°C ± 1°C, with 60 % ± 20% humidity. For 22-23 weeks prior to treatment start and throughout the study, the animals had ad libitum access to high-fat diet (60% kcal fat, D12492, Research Diets) and tap water.
The animals were randomized according to lean mass (EchoMRI) and body weight. Animals were dosed subcutaneously […] for 30-32 days. In study 1, the animals were dosed with vehicle or SEQ ID NO: 3 (10, 30, 60 or 100 nmol/kg). In study 2, the animals were dosed with vehicle or SEQ ID NO: 6 (10 or 30 nmol/kg), SEQ ID NO: 238 (10 or 30 nmol/kg), SEQ ID NO: 16 (10 or 30 nmol/kg), SEQ ID NO: 215 (10 or 30 nmol/kg) or SEQ ID NO: 3 (30 nmol/kg).
Body weight and food intake were recorded daily until day 28 and body composition evaluated on day 26 using EchoMRI. At termination, blood for HbA1c analyses were collected and M. gastrocnemius and M. soleus were weighed.
Statistical significance was evaluated using One-way analysis of variance with Dunnett's multiple comparison test. P < 0.05 was considered statistically significant.

[3] = Dynamic Light Scattering (DLS) of peptide oligomerisation/particle formation; format: physicochemical; settings: for PD (%) / Rh (nm): average of three replica
Description: Samples were prepared by dissolving 800 nmol of each peptide in 400 µl 50 mM phosphate pH 8.0 to a concentration of 2000 µM (ca 10 mg/ml). After fully dissolution for 2 hours on a rocking table, samples were adjusted to pH 7.5 and filtrated through a 0.2 µm Whatman Anotop filter. Comparators were commercially available liraglutide drug product (Victoza®, Novo Nordisk) pH 8.2, and an aliquot of this drug product adjusted to pH 6.7. These samples were filtrated through a 0.02 µm Whatman Anotop filter.
Samples were pipetted as triplicate of 30 µl to an Aurora 384 well microtiter plate, which was centrifuged for 2 minutes at 2200 rpm and then sealed with a Thermo sealing tape 235307. DLS measurements were done in a Wyatt DynaPro platereader III with the following parameters:
The microtiter plate was incubated in a Grant-bio Thermo Shaker PHMP-4 at 40°C with 700 rpm continuous shaking before subsequent DLS measurements. Data analysis was done using Wyatt Dynamics software ver. 7.10.1.21.
Samples were prepared and measured as described in procedure. The hydrodynamic radii (Rh) and associated polydispersity (PD) resulting from cumulant analysis (assuming one species) are shown in the Table 8 as averages of three replica. T0 indicates the measurement at time zero after sample preparation; T5 indicates the measurements of five days of incubation as described above.

pCRHR1 = assay: cAMP potency, transiently transfected CHO-K1 cells, pCRHR1; format: cell-based, pig; settings: transiently transfected CHO-K1, average n=3; read-out: Transient cell system EC50 (nM) pCRHR 1
Description: Selected peptides were tested for potency on different species (mouse, rat, porcine) using transiently transfected CHO-K1 cells using the general procedure.

hCRHR2a = target: T1, hCRHR2a (Homo sapiens, UniProt Q13324); assay: cAMP potency, transiently transfected CHO-K1 cells, hCRHR2a; format: cell-based; settings: transiently transfected CHO-K1, average n=3; read-out: Transient cell system EC50 (nM) hCRHR 2a
T1 construct: DYK (FLAG); host or cells: CHO-K1, transiently transfected
T1 sequence (Q13324 1-411): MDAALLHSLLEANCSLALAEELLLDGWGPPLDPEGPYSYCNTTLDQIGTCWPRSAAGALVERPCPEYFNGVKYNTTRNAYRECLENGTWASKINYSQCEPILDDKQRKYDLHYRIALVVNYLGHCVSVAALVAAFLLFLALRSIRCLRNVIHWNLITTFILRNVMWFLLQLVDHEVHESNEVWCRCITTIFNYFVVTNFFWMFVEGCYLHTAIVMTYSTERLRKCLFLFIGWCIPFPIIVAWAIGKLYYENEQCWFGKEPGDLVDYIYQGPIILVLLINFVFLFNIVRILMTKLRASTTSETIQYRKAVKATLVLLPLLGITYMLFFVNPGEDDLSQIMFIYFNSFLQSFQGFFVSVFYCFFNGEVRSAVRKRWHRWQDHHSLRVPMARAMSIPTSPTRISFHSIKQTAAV

[4] = T0, time zero after sample preparation
[5] = T5, five days incubation at 40°C with continuous shaking

Compound	HMWP formation (SEC analysis) T14-T0 (%) ([1]; pH 7.0, 40°C)	HMWP formation (SEC analysis) T28-T0 (%) ([1]; pH 7.0, 40°C)	HMWP formation (SEC analysis) T14-T0 (%) ([1]; pH 7.5, 40°C)	HMWP formation (SEC analysis) T28-T0 (%) ([1]; pH 7.5, 40°C)	HMWP formation (SEC analysis) T14-T0 (%) ([1]; pH 8.0, 40°C)	HMWP formation (SEC analysis) T28-T0 (%) ([1]; pH 8.0, 40°C)	relative body weight [2]	Blood HbA1c ([2]; 10 nmol/kg)	M. Gastrocnemius ([2]; 10 nmol/kg)	M. Soleus ([2]; 10 nmol/kg)	Body weight at termination ([2]; 10 nmol/kg)	Fat mass change from baseline ([2]; 10 nmol/kg)	Lean mass change from baseline ([2]; 10 nmol/kg)	Relative body weight change at termination ([2]; 10 nmol/kg)	Blood HbA1c ([2]; 30 nmol/kg)	M. Gastrocnemius ([2]; 30 nmol/kg)	M. Soleus ([2]; 30 nmol/kg)	Body weight at termination ([2]; 30 nmol/kg)	Fat mass change from baseline ([2]; 30 nmol/kg)	Lean mass change from baseline ([2]; 30 nmol/kg)	other results
CCCC[C@H](NC(=O)[C@@H](NC(=O)[C@H](CCC(=O)O)NC(=O)[C@H](C)NC(=O)[C@H](CC(N)=O)NC(=O)C(C)(C)NC(=O)[C@H](CCCCNC(=O)COCCOCCNC(=O)COCCOCCNC(=O)CC[C@H](NC(=O)CC[C@H](NC(=O)CCCCCCCCCCCCCCCCCCC(=O)O)C(=O)O)C(=O)O)NC(=O)[C@H](C)NC(=O)[C@H](CCC(N)=O)NC(=O)[C@H](CCC(=O)O)NC(=O)[C@H](CCCNC(=N)N)NC(=O)[C@H](C)NC(=O)[C@H](C)NC(=O)[C@H](CCCNC(=N)N)NC(=O)[C@H](C)NC(=O)[C@H](CCCNC(=N)N)NC(=O)[C@H](C)NC(=O)[C@H](CCC(N)=O)NC(=O)[C@H](CO)NC(=O)[C@H](CC(C)C)NC(=O)[C@H](CC(C)C)NC(=O)[C@@H](NC(=O)[C@H](CCC(N)=O)NC(=O)[C@H](CC(C)C)NC(=O)[C@H](CC(C)C)NC(=O)CNC(=O)[C@@H](NC(=O)[C@@H]1CCCN1C(=O)[C@@H](NC(=O)[C@H](CC(=O)O)NC(=O)[C@H](CC(C)C)NC(=O)[C@H](CO)NC(=O)[C@H](CC(C)C)NC(=O)[C@@H](NC(=O)[C@@H]1CCCN1)C(C)C)C(C)C)[C@@H](C)CC)[C@@H](C)CC)[C@@H](C)CC)C(=O)N[C@@H](C)C(=O)N[C@@H](CCC(=O)O)C(=O)N[C@H](C(N)=O)C(C)C [SEQ ID NO: 238] (H-PVLSLDVPIGLLQILLSQARARAAREQAK([AEEA-AEEA-γGlu-γGlu-C20 diacid])[Aib]NAEI[Nle]AEV-NH2)	0.3%	0.5%	0.4%	0.4%	-0.1%	0.2%	prolonged dose-dependent reduction	4.3 ± 0.04 %	0.18 ± 0.001 g	0.012 ± 0.0003 g	39.1 ± 0.7 g	-9.5 ± 0.6 g	-0.4 ± 0.2 g	82.3 ± 1.2 %	4.4 ± 0.1 %	0.18 ± 0.004 g	0.011 ± 0.0007 g	37.4 ± 0.9 g	-10.7 ± 0.3 g	-0.7 ± 0.3 g	Relative body weight change at termination ([2]; 30 nmol/kg): 77.9 ± 0.7 %; PD (%) [3, 4]: 5.3%; Rh (nm) [3, 4]: 4.8 nm; PD (%) [3, 5]: 8.1%; Rh (nm) [3, 5]: 4.8 nm; EC50 (pCRHR1): > 5000 nM; EC50 (hCRHR2a): 0.018 nM
CC[C@H](C)[C@H](NC)C(=O)N[C@H](C(=O)N[C@@H](CC(C)C)C(=O)N[C@@H](CO)C(=O)N[C@@H](CC(C)C)C(=O)N[C@@H](CC(=O)O)C(=O)N[C@H](C(=O)N1CCC[C@H]1C(=O)N[C@H](C(=O)NCC(=O)N[C@@H](CC(C)C)C(=O)N[C@@H](CC(C)C)C(=O)N[C@@H](CCC(N)=O)C(=O)N[C@H](C(=O)N[C@@H](CC(C)C)C(=O)N[C@@H](CC(C)C)C(=O)N[C@@H](CCC(=O)O)C(=O)N[C@@H](CCC(N)=O)C(=O)N[C@@H](C)C(=O)N[C@@H](CCCNC(=N)N)C(=O)N[C@@H](C)C(=O)N[C@@H](CCCNC(=N)N)C(=O)N[C@@H](C)C(=O)N[C@@H](C)C(=O)N[C@@H](CCCNC(=N)N)C(=O)N[C@@H](CCC(=O)O)C(=O)N[C@@H](CCC(N)=O)C(=O)N[C@@H](C)C(=O)N[C@H](C(=O)N[C@@H](CCCCNC(=O)COCCOCCNC(=O)COCCOCCNC(=O)CC[C@H](NC(=O)CC[C@H](NC(=O)CCCCCCCCCCCCCCCCCCC(=O)O)C(=O)O)C(=O)O)C(=O)N[C@@H](CC(N)=O)C(=O)N[C@@H](C)C(=O)N[C@@H](CCC(=O)O)C(=O)N[C@H](C(=O)N[C@@H](CC(C)C)C(=O)N[C@@H](C)C(=O)N[C@@H](CCC(=O)O)C(=O)N[C@H](C(N)=O)C(C)C)[C@@H](C)CC)[C@@H](C)O)[C@@H](C)CC)[C@@H](C)CC)C(C)C)C(C)C [SEQ ID NO: 6] (H-[NMeI]VLSLDVPIGLLQILLEQARARAAREQATK([AEEA-AEEA-γGlu-γGlu-C20 diacid])NAEILAEV-NH2)	-0.1%	0.1%	-0.4%	-0.4%	-0.2%	0.0%	prolonged dose-dependent reduction	4.0 ± 0.1 %	0.18 ± 0.004 g	0.012 ± 0.0008 g	42.6 ± 1.3 g	-7.0 ± 0.9 g	0.1 ± 0.3 g	89.1 ± 2.0 %	4.1 ± 0.1 %	0.18 ± 0.001 g	0.013 ± 0.0004 g	38 ± 0.5 g	-10.7 ± 0.5 g	-0.1 ± 0.3 g	Relative body weight change at termination ([2]; 30 nmol/kg): 79.3 ± 1.2 %; particle size / hydrodynamic radii (DLS) ([3]; 2000 µM, pH 7.5, five days incubation at 40°C with continuous shaking): formed larger particles and several species (multimodal); PD (%) [3, 4]: 38.5%; Rh (nm) [3, 4]: 5.8 nm; PD (%) [3, 5]: Multimodal; Rh (nm) [3, 5]: 30.6 nm; EC50 (pCRHR1): > 5000 nM; EC50 (hCRHR2a): 0.023 nM
